# Measured values: patent US20170296616A1, “METHODS OF TREATING DEPRESSION USING NMDA MODULATORS” (Naurex, Inc., priority 2014, published 2017)
# Residues, ends and D or L forms follow the SMILES beside them.
# Experiments:
# [1] = tested on: patients suffering with refractory depression; details: cited from earlier work; for change in Hamilton Depression Rating Score: patients with refractory depression; for side effects: reported for the NMDAR antagonists
# [2] = tested on: subjects with MDD that had responded inadequately to another antidepressant agent; assay: Repeat dose study of adjunctive GLYX-13 in human subjects (randomized withdrawal design); type: in vivo; details: for reduction of CGI-I score: baseline 4.3-4.6
# Experimental: A repeat dose study was conducted on human subjects using adjunctive dosing (patients were currently taking another antidepressant medication). Dose levels of 5 mg/kg and 10 mg/kg were used with weekly or biweekly dose during an initial, stabilization period, as shown in FIGS. 7A and 7B (showing typical design of randomized withdrawal maintenance study). The disposition of the subjects, as indicated in FIGS. 7A and 7B was 144 nonresponders and […], where of the responders (70 patients assigned to weekly dosing, 36 patients assigned to biweekly dosing, 55 patients randomized to placebo). […] The study was blinded to third party raters (HDRS-17) and to clinicians of the treatment group (CGI-S).
# Methods. GLYX-13 was administered over 12 weeks to subjects who had responded inadequately to another antidepressant agent. Subjects continued taking the other antidepressant during the entire course of the study. The study was divided into 3 parts. During the first 6 weeks, subjects were randomized to receive GLYX-13 at 5 mg/kg IV or 10 mg/kg IV. Subjects returned to the clinic weekly. If subjects had reached clinical response (HDRS-17 reduced ≧50% from baseline) to GLYX-13 administered the previous week, placebo was administered weekly until relapse (HDRS-17 reduced <50% from baseline). At the 6th week of evaluation, subjects who had achieved response to GLYX-13 at some visit were assigned to weekly or biweekly dosing based on time to relapse during placebo administration and randomized to continue receiving GLYX-13 or placebo (randomized withdrawal) for a subsequent 6 weeks of dosing. At the end of the randomized withdrawal period, subjects received placebo injections for 4 weeks. Subjects were blind to the treatments. Third party evaluators blind to treatment and protocol were utilized. Treatment dose and interval were calculated by an interactive web-based response system based on a mathematical algorithm; site personnel were blinded to treatment.
# [3] = cited from earlier work
# [4] = tested on: long-term potentiation (LTP); assay: Long-term potentiation (LTP) after single or multiple bi-weekly doses (FIG. 3)
# [5] = end of randomized withdrawal period, biweekly doses
compound,measurement,setting,value
CNC1(c2ccccc2Cl)CCCCC1=O (stereo not drawn) [ketamine],change in Hamilton Depression Rating Score,[1],significant reductions
same,side effects,[1],reportedly severe
"C[C@@H]([C@@H](O)c1ccc(O)cc1)N1CCC(O)(c2ccccc2)CC1 [CPC-101,606]",change in Hamilton Depression Rating Score,[1],significant reductions
same,side effects,[1],reportedly severe
C[C@@H](O)[C@H](N)C(=O)N1CCC[C@H]1C(=O)N1CCC[C@H]1C(=O)N[C@H](C(N)=O)[C@@H](C)O [GLYX-13] (H-TPPT-NH2),improvements on HDRS scale during the rest period (randomized withdrawal),"[2]; FIG. 1, compared with the induction (stabilization) period",generally maintained
same,improvements on Bech-6 scale during the rest period (randomized withdrawal),"[2]; FIG. 4, compared with the induction (stabilization) period",generally maintained
same,improvements on CGI-S scale during the rest period,"[2]; FIG. 5, Week 7 and Week 13",generally maintained
same,subjects that relapsed more slowly,[2]; assigned to biweekly dosing in the randomized withdrawal period,33%
same,responders that relapsed within 2 weeks following cessation of GLYX-13,[2]; assigned to weekly dosing in the randomized withdrawal period,Approximately 67%
same,responders that relapsed quickly during early treatment,[2]; early treatment,About two-thirds
same,"responders that relapsed slowly, even during early treatment",[2]; early treatment,About one-third
same,reduction of CGI-I score,"[2]; end of randomized withdrawal period, 5 mg/kg IV weekly dose group",2.5 ± 0.14
same,percent of subjects that achieved remission,"[2]; end of randomized withdrawal period, 5 mg/kg weekly group vs biweekly dose groups",not statistically different from the biweekly dose groups
same,reduction of CGI-I score,"[2]; end of randomized withdrawal period, 10 mg/kg IV group",1.6±0.15
same,subjects that reached remission (HDRS score <=7),"[2]; end of randomized withdrawal period, 10 mg/kg weekly",42%
same,subjects that achieved remission (HDRS score <=7),[2]; [5],45%
same,subjects that achieved response,[2]; [5],65%
same,reduction of CGI-I score,"[2]; end of randomized withdrawal period, biweekly groups",2.5±0.12
same,HDRS-17 score in responders,"[2]; following 6 weeks of dosing, baseline 23.5±0.34, mean±S.E.M.",10.3±0.65
same,time after withdrawal of GLYX-13 without return of HDRS-17 score toward baseline,"[2]; following 6 weeks of dosing, placebo thereafter",up to 10 weeks
same,efficacy following forced relapse,[2]; repeated crossover GLYX-13 / placebo (FIG. 6),Efficacy was reestablished following forced relapse
same,side effects with repeated dosing,[2]; repeated dosing,without significant side effect
same,tolerance with repeated dosing,[2]; repeated dosing,no tolerance apparent
same,ultimate responders that showed response after one dose,"[2]; stabilization phase, 5 or 10 mg/kg, after one dose",~65%
same,ultimate responders that showed response after three doses,"[2]; stabilization phase, after three doses",~85%
same,ultimate responders that showed response after two doses,"[2]; stabilization phase, after two doses",~72%
same,psychotomimetic side effects,[3]; compared with other drugs that target the NMDA receptor,lack the pyschotomimetic side effects
same,antidepressant activity,[3]; in vivo,"rapid-acting, robust, and sustained antidepressant activity"
same,effect on long-term potentiation (LTP),[4]; 24 hours and one week following a single dose,enhances long-term potentiation
same,effect on long-term potentiation (LTP),[4]; following multiple bi-weekly doses,persistently enhances LTP
